Measurements taken from ChEMBL document CHEMBL3045044, “Further derivatives of 4-benzoyl-1,5-diphenyl-1H-pyrazole-3-carboxylic acid and their antibacterial activities” (2007).
Values after ≈ are worked out from the molar mass of the structure shown. Active and inactive are the calls of the source. No cut-off for these calls is given here.

How the values were obtained:
Assay type in all cases: functional
Bacillus subtilis = test: Antibacterial activity against Bacillus subtilis ATCC 6633 after overnight incubation by microdilution method
Staphylococcus aureus = test: Antibacterial activity against Staphylococcus aureus ATCC 29213 after overnight incubation by microdilution method
Streptococcus pyogenes = test: Antibacterial activity against Streptococcus pyogenes ATCC 176 after overnight incubation by microdilution method
Proteus vulgaris = test: Antibacterial activity against Proteus vulgaris Kukem 1329 after overnight incubation by microdilution method
Enterococcus faecalis = test: Antibacterial activity against Enterococcus faecalis ATCC 29122 after overnight incubation by microdilution method
Klebsiella pneumoniae = test: Antibacterial activity against Klebsiella pneumoniae A137 after overnight incubation by microdilution method
Pseudomonas aeruginosa = test: Antibacterial activity against Pseudomonas aeruginosa ATCC 9027 after overnight incubation by microdilution method
Xanthomonas campestris = test: Antibacterial activity against Xanthomonas campestris A235 after overnight incubation by microdilution method
Salmonella enteritidis = test: Antibacterial activity against Salmonella enterica subsp. enterica serovar Enteritidis ATCC 1376 after overnight incubation by microdilution method
Escherichia coli = test: Antibacterial activity against Escherichia coli B3704 after overnight incubation by microdilution method

SMILES | MIC (Bacillus subtilis) | MIC (Staphylococcus aureus) | MIC (Streptococcus pyogenes) | MIC (Proteus vulgaris) | MIC (Enterococcus faecalis) | MIC (Klebsiella pneumoniae) | MIC (Pseudomonas aeruginosa) | MIC (Xanthomonas campestris) | MIC (Salmonella enteritidis) | MIC (Escherichia coli)
O=c1onc(-c2ccccc2)c2c(-c3ccccc3)n(-c3ccccc3)nc12 | inactive | inactive | 512 µg/mL (≈ 1400 µM) | 512 µg/mL (≈ 1400 µM) | inactive | inactive | inactive | 256 µg/mL (≈ 701 µM) | inactive | 512 µg/mL (≈ 1400 µM)
N#Cc1nn(-c2ccccc2)c(-c2ccccc2)c1C(=O)c1ccccc1 | inactive | inactive | inactive | 512 µg/mL (≈ 1470 µM) | inactive | inactive | inactive | 512 µg/mL (≈ 1470 µM) | inactive | 512 µg/mL (≈ 1470 µM)
Nc1nnc(-c2ccccc2)c2c(-c3ccccc3)n(-c3ccccc3)nc12 | inactive | inactive | inactive | 512 µg/mL (≈ 1410 µM) | inactive | inactive | 32 µg/mL (≈ 88.1 µM) | 512 µg/mL (≈ 1410 µM) | inactive | 512 µg/mL (≈ 1410 µM)

Continued by falling MIC (Proteus vulgaris), values first:

MIC (Bacillus subtilis) | MIC (Staphylococcus aureus) | MIC (Streptococcus pyogenes) | MIC (Proteus vulgaris) | MIC (Enterococcus faecalis) | MIC (Klebsiella pneumoniae) | MIC (Pseudomonas aeruginosa) | MIC (Xanthomonas campestris) | MIC (Salmonella enteritidis) | MIC (Escherichia coli) | SMILES
inactive | inactive | inactive | 512 µg/mL (≈ 1190 µM) | inactive | inactive | inactive | 512 µg/mL (≈ 1190 µM) | inactive | inactive | O=C(c1ccccc1)c1nn(-c2ccccc2)c(-c2ccccc2)c1C(=O)c1ccccc1
inactive | 32 µg/mL (≈ 71.7 µM) | 32 µg/mL (≈ 71.7 µM) | 32 µg/mL (≈ 71.7 µM) | inactive | 32 µg/mL (≈ 71.7 µM) | 32 µg/mL (≈ 71.7 µM) | 32 µg/mL (≈ 71.7 µM) | 32 µg/mL (≈ 71.7 µM) | 32 µg/mL (≈ 71.7 µM) | NS(=O)(=O)NC(=O)c1nn(-c2ccccc2)c(-c2ccccc2)c1C(=O)c1ccccc1
24 µg/mL (≈ 74.3 µM) | 6 µg/mL (≈ 18.6 µM) | 12 µg/mL (≈ 37.1 µM) | 24 µg/mL (≈ 74.3 µM) | 12 µg/mL (≈ 37.1 µM) | 12 µg/mL (≈ 37.1 µM) | 24 µg/mL (≈ 74.3 µM) | 12 µg/mL (≈ 37.1 µM) | 24 µg/mL (≈ 74.3 µM) | 6 µg/mL (≈ 18.6 µM) | O=C(N[C@H](CO)[C@H](O)c1ccc([N+](=O)[O-])cc1)C(Cl)Cl [CHLORAMPHENICOL]
